Laboratory results as given in patent US10945978B2, “Treatment and diagnosis of melanoma” (The Rockefeller University, priority 2012, dated 2021).
Entries after “also recorded” stand apart in the source; their conditions may differ.

Assays:
[1] = tested on: ApoE; assay: ApoE expression by qRT-PCR in human melanoma cells; assay type: cell-based; settings: MeWo cells, 500 nM, 1 μM or 2 μM, 48 hours
Experimental: Total RNA was extracted from various cell lines using the miRvana kit (AM1560, Applied Biosystems, Austin, Tex.). The expression levels of mature miRNAs were quantified using the Taqman miRNA expression assay (4427975-0002228, Applied Biosystems). RNU44 was used as an endogenous control for normalization. For mRNA expression analyses, 600 ng of total RNA was reverse transcribed using the cDNA First-Strand Synthesis Kit (18080-051, Invitrogen), and roughly 200 ng of the resulting cDNA was then mixed with SYBR green PCR Master Mix (4309155, Applied Biosystems) and the appropriate primers. Each reaction was performed in quadruplicate, and mRNA expression was quantified by performing real-time PCR amplification using an ABI Prism 7900HT Real-Time PCR System (Applied Biosystems). GAPDH was used as an endogenous control for normalization. The following primers were used: […]
RNA was extracted from whole cell lysates using the Total RNA Purification Kit (17200, Norgen, Thorold, Canada). 600 ng of total RNA was then reverse transcribed into cDNA using the cDNA First-Strand Synthesis Kit (18080-051, Invitrogen), and quantitative real-time PCR amplification was performed as previously described (Pencheva et al., 2012) using an ABI Prism 7900HT Real-Time PCR System (Applied Biosystems, Austin, Tex.). Each PCR reaction was carried out in quadruplicates. Gene expression was normalized to GAPDH, which was used as an endogenous control.
For every sample, 600 ng of RNA was reverse transcribed into cDNA using the cDNA First-Strand Synthesis kit (Invitrogen). Approximately 200 ng of cDNA was mixed with SYBR® green PCR Master Mix and the corresponding forward and reverse primers specific for detection of human ApoE. Each reaction was carried out in quadruplicates, and ApoE mRNA expression levels were measured by quantitative real-time PCR amplification using an ABI Prism 7900HT Real-Time PCR System (Applied Biosystems). The relative ApoE expression was determined using the ΔΔCt method. GAPDH was used as an endogenous control for normalization purposes.

[2] = tested on: B16F10 mouse melanoma cells; assay: Subcutaneous B16F10 tumor growth in C57BL/6 mice; settings: in chow: WO-2010-0138598 Ex. 9 10 or 100 mg/kg/day, SB742881 100 mg/kg/day
Experimental: Animals were palpated weekly for tumor formation, after which sizeable tumors were measured twice a week. Tumor volume was calculated as (small diameter)^2×(large diameter)/2.

[3] = tested on: MeWo, MeWo-LM2, HT-144, SK-Mel-2 and SK-Mel-334.2 human melanoma cells; assay: Trans-well matrigel cell invasion assay, melanoma cells; assay type: cell-based; settings: 1 μM for 72 hours
Experimental: Cancer cells were serum-starved in 0.2% FBS DMEM-based media for 12 hours. Trans-well invasion chambers (354480, BD Biosciences, Bedford, Mass.) were pre-equilibrated prior to beginning the assay by adding 0.5 mL of starvation media to the top and bottom chambers. After 30 minutes, the media in the top chamber was removed, and 0.5 mL of media containing 1×10^5 cancer cells was added into each matrigel-coated trans-well insert and incubated at 37° C. for 24 hours. For neutralization antibody and/or recombinant protein experiments, antibody/recombinant protein was added to each well at the start of the assay at the following concentrations as indicated in the figures: 5-40 μg/mL anti-ApoE 1D7 (Heart Institute, University of Ottawa), 5-40 μg/mL anti-IgG (AB-108-C, R&D Systems, Minneapolis, Minn.), 100 μM recombinant human ApoE3 (4696, BioVision, Mountain View, Calif.), and 100 μM BSA (A2153, Sigma-Aldrich). Upon completion of the assay, matrigel-coated inserts were washed with PBS, the cells at the top side of each insert were scraped off, and the inserts were fixed in 4% paraformaldehyde for 15 minutes. The inserts were then cut out and mounted onto slides using VectaShield mounting medium containing DAPI (H-1000, Vector Laboratories, Burlingame, Calif.). The basal side of each insert was imaged using an inverted fluorescence microscope (Zeiss Axiovert 40 CFL) at 5× magnification, taking three representative images for each insert. The number of invaded cells was quantified using ImageJ (NIH).
The cell invasion assay was performed as previously described in detail (Pencheva et al., 2012) using a trans-well matrigel invasion chamber system (354480, BD Biosciences). In brief, various melanoma cells were cultured in the presence of DMSO, GW3965, T0901317, or Bexarotene at 1 μM for 56 hours, after which melanoma cells were switched to starvation media (0.2% FBS) for 16 hours in the presence of each drug. Following starvation, cells were seeded into matrigel-coated trans-well inserts, and the invasion assay was allowed to proceed for 24 hours at 37° C. For ApoE antibody neutralization experiments, 40 μg/mL 1D7 anti-ApoE blocking antibody (Heart Institute, University of Ottawa, Ottawa, Canada) or 40 t g/mL anti-IgG control antibody (AB-108-C, R&D Systems, Minneapolis, Minn.) was added to each trans-well insert at the start of the assay.
The cells were then serum starved for 16 hours in 0.2% FBS media in the presence of each corresponding drug or DMSO. Following serum starvation, the cells were subjected to the trans-well invasion assay using a matrigel invasion chamber system (354480, BD Biosciences). Invasion chambers were pre-equilibrated prior to the assay by adding 0.5 mL of starvation media to the top and bottom wells. Meanwhile, cancer cells were trypsinized and viable cells were counted using trypan blue. Cancer cells were then resuspended at a concentration of 2×10^5 cells/1 mL starvation media, and 0.5 mL of cell suspension, containing 1×10^5 cells, was seeded into each trans-well. The invasion assay was allowed to proceed for 24 hours at 37° C. […] Following fixation, the inserts were washed in PBS, cut out, and mounted onto slides using VectaShield mounting medium containing DAPI nuclear stain (H-1000, Vector Laboratories). The basal side of each insert was imaged using an inverted fluorescence microscope (Zeiss Axiovert 40 CFL) at 5× magnification, and the number of DAPI-positive cells was quantified using ImageJ.

[4] = tested on: B16F10 parental and DTIC-resistant cells; assay: Tumor growth by DTIC-sensitive and DTIC-resistant B16F10 cells; assay type: in vivo, mouse; settings: dacarbazine 50 mg/kg, i.p., daily
Experimental: First, the cells were treated with 500 μg/mL DTIC for one week. Following this initial DTIC treatment, the remaining (˜10%) viable cells were allowed to recover for one week, after which 750 rag/mL of DTIC was added to the cell media for 5 days. Subsequent to this high-dose treatment, the cells were allowed to recover in the presence of low-dose DTIC (100 jag/mL) for one week. The cells were then continuously cultured in cell media containing 200 rag/mL DTIC for at least one month prior to grafting the cells into mice. DTIC was added to fresh cancer cell media every 3 days.

[5] = tested on: melanoma cells (MeWo, MeWo-LM2, HT-144, SK-Mel-334.2) and endothelial cells; assay: In vitro cell proliferation, viability and serum starvation assays; assay type: cell-based, human; settings: MeWo, HT-144, SK-Mel-334.2; 1 μM, 5 days
Experimental: To determine the effects of miR-199a or miR-1908 over-expression and combinatorial LNA-induced miRNA inhibition on cell proliferation, 2.5×10^4 cells were seeded in triplicate in 6-well plates, and viable cells were counted after 5 days. […] Viable cells were counted after 8, 24, 48, 72, and 120 hours.
The number of viable cells was counter after 8, 16, and 24 hours.
To determine the effects of GW3965, T0901317, and Bexarotene on in vitro cell growth, 2.5×10^4 melanoma cells were seeded in triplicate in 6-well plates and cultured in the presence of DMSO, GW3965, T0901317, or Bexarotene at 1 μM each. After 5 days, the number of viable and dead cells was counted using the trypan blue dye (72-57-1, Sigma-Aldrich), which selectively labels dead cells.

[6] = tested on: human umbilical vein endothelial cells (HUVEC's); assay: Endothelial recruitment assay (HUVEC migration towards melanoma cells); assay type: cell-based; settings: MeWo, HT-144, SK-Mel-2, SK-Mel-334.2; 1 μM for 72 hours
Experimental: 5×10^4 cancer cells were seeded into 24-well plates approximately 24 hours prior to the start of the assay. HUVEC's were grown to 80% confluency and serum starved in EGM-2 media supplemented with 0.2% FBS for 16 hours. HUVEC's were then pulsed with Cell Tracker Red CMTPX dye (C34552, Invitrogen) for 45 minutes. Meanwhile, cancer cells were washed with PBS, 0.5 mL of 0.2% FBS EGM-2 media was added to each well, and a 3.0 μm HTS Fluoroblock insert (351151, BD Falcon, San Jose, Calif.) was placed into each well. 1×10^5 HUVEC's, resuspended in 0.5 mL of starvation media, were seeded into each trans-well insert, and the recruitment assay was allowed to proceed for 16-18 hours at 37° C. For neutralization antibody and/or recombinant protein experiments, antibody/protein was then added to each well at the appropriate concentration as indicated in the figures: 40 μg/mL anti-ApoE 1D7, 40 μg/mL anti-IgG, 100 μM rhApoE3, and 100 μM BSA. Upon completion of the assay, the inserts were processed and analyzed as described for the matrigel invasion assay above (See Matrigel Invasion Assay).
The endothelial recruitment assay was carried out as previously described (Pencheva et al., 2012; Png et al., 2012). Melanoma cells were treated with DMSO, GW3965, T0901317, or Bexarotene at 1 μM for 56 hours, after which 5×10^4 cells were seeded in a 24-well plate in the presence of each drug and allowed to attach for 16 hours prior to starting the assay. HUVEC cells were serum-starved overnight in EGM-2 media containing 0.2% FBS. The following day, 1×10^5 HUVEC cells were seeded into a 3.0 μm HTS Fluoroblock trans-well migration insert (351151, BD Falcon, San Jose, Calif.) fitted into each well containing cancer cells at the bottom. The HUVEC cells were allowed to migrate towards the cancer cells for 20 hours at 37° C., after which the inserts were processed as previously described (Pencheva et al., 2012). For ApoE antibody neutralization experiments, 40 μg/mL 1D7 anti-ApoE blocking antibody (Heart Institute, University of Ottawa, Ottawa, Canada) or 40 μg/mL anti-IgG control antibody (AB-108-C, R&D Systems, Minneapolis, Minn.) was added to each trans-well insert at the start of the assay.
Subsequently, 5×10^4 cancer cells were seeded into 24-well plates in the presence of each drug or DMSO and allowed to attach for 16 hours prior to starting the assay. Human umbilical vein endothelial cells (HUVEC cells) were serum-starved in 0.2% FBS-containing media overnight. The following day, 1×10^5 HUVEC cells were seeded into a 3.0 μm HTS Fluoroblock insert (351151, BD Falcon) fitted into each well containing the cancer cells at the bottom. The HUVEC cells were allowed to migrate towards the cancer cells for 20 hours, after which the inserts were washed in PBS, fixed in 4% PFA, labeled with DAPI, and mounted on slides. The basal side of each insert was imaged using an inverted fluorescence microscope (Zeiss Axiovert 40 CFL) at 5× magnification, and the number of DAPI-positive cells was quantified using ImageJ.

Fc1ccc(-c2c3cccc(C(F)(F)F)c3nn2Cc2ccc(F)cc2Cl)cc1 [LXR-623 3]
ApoE expression induction [1]: varied degrees of ApoE expression induction

CC(C)(O)c1cn(-c2ccc(-c3cccc(S(C)(=O)=O)c3)cc2)c(C(C)(C)c2ccccc2Cl)n1 [Compound 38]
ApoE expression induction [1]: varied degrees of ApoE expression induction

CC(C)(O)c1cn(-c2ccc(-c3cc(F)c(CO)c(S(C)(=O)=O)c3)cc2F)c(C(C)(C)c2c(Cl)cccc2Cl)n1 [Compound 12]
melanoma primary tumor growth [2]: significantly inhibited | ApoE expression induction ([1]; listed as WO-2010-0138598 Ex. 9): varied degrees of ApoE expression induction; also recorded: potently induce | inhibition of in vitro cancer progression phenotypes (cell invasion, endothelial recruitment) ([3]; MeWo cells, relative to lower potency LXR agonists): more effective

CN(C)/N=N/c1[nH]cnc1C(N)=O [dacarbazine]
growth of the DTIC-sensitive parental line [4]: significantly suppressed | tumor growth by B16F10 DTIC-resistant cells [4]: did not affect

C=C(c1ccc(C(=O)O)cc1)c1cc2c(cc1C)C(C)(C)CCC2(C)C [bexarotene]
cell proliferation or cell viability rates [5]: did not affect | ability of melanoma cells to recruit endothelial cells [6]: did not significantly affect | ability of melanoma cells to invade through matrigel ([3]; MeWo, HT-144, SK-Mel-2, SK-Mel-334.2): suppressed invasion only in half of the melanoma lines tested
